Activity calls are given as the source filed them. No rule for the calls is given here.

Intestinal-type alkaline phosphatase (Homo sapiens), sequence (P09923 whole entry, looked up): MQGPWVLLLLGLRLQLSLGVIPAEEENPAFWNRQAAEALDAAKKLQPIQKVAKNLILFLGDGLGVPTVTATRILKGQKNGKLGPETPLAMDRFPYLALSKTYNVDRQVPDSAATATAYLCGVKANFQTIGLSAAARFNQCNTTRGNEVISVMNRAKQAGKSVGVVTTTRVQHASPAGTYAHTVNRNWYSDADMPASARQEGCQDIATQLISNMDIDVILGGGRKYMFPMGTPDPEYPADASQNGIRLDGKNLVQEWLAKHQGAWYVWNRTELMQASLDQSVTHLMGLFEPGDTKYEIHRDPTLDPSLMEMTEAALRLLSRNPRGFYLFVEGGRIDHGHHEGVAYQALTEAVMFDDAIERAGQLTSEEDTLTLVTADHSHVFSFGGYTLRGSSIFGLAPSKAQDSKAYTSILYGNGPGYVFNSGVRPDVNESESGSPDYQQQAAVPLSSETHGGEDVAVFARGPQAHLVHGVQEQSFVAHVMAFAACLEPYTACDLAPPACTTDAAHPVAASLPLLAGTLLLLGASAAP

This experiment addresses Intestinal-type alkaline phosphatase (Homo sapiens) (UniProt P09923). Description: human IAP enzyme inhibitors, SAR follow-up, mouse IAP inhibitor project, biochemical, set 2 (AID 588645). The note with it: human intestinal alkaline phosphatase enzymatic inhibition assay.
In the case of `N#Cc1ccc(NC(=O)CNS(=O)(=O)c2ccc3[nH]c(=O)oc3c2)cc1`, the IC50 (in general, the midpoint of a concentration-inhibition curve) was > 100 µM (inactive).
Regarding `COc1ccc(CNC(=O)CCCNS(=O)(=O)c2ccc3[nH]c(=O)oc3c2)c(OC)c1`, the IC50 was > 100 µM (inactive).
Take `COc1ccc(CNC(=O)CCNS(=O)(=O)c2ccc3c(c2)CCC3)c(OC)c1`: the IC50 was > 100 µM (inactive).
As to `COc1ccc(CCNC(=O)CCCNS(=O)(=O)c2ccc3[nH]c(=O)oc3c2)cc1`, the IC50 was > 100 µM (inactive).
As for `O=C(N/N=C/c1ccc(F)cc1F)c1ccc(O)cc1`, the IC50 is > 100 µM (inactive).
With `COc1ccc(NC(=O)CCNS(=O)(=O)c2ccc3ccccc3c2)cc1OC`, the IC50 was > 100 µM (inactive).
The value for `O=c1[nH]c2ccc(S(=O)(=O)Nc3ccc4c(c3)OCO4)cc2o1` was > 100 µM (inactive).
With `COc1cccc(/C=N/NC(=O)c2cc(O)c(O)c(O)c2)c1O`, the IC50 was > 100 µM (inactive).
Take `CCc1ccc(NC(=O)C2CCCN(S(=O)(=O)c3ccc4c(c3)oc(=O)n4C)C2)cc1` (centres undefined): the IC50 was > 100 µM (inactive).
For `COc1ccc(OC)c(NC(=O)C2CCCN(S(=O)(=O)c3ccc4c(c3)oc(=O)n4C)C2)c1` (centres undefined), the IC50 was > 100 µM (inactive).
With `O=C(CCCNS(=O)(=O)c1ccc2[nH]c(=O)oc2c1)NCCc1ccc(O)cc1`, the IC50 was > 100 µM (inactive).
`O=C(CNS(=O)(=O)c1ccc2[nH]c(=O)oc2c1)NCCc1ccc2c(c1)OCO2`: the IC50 is > 100 µM (inactive).
With `O=C(CCS(=O)(=O)Nc1ccc2[nH]c(=O)oc2c1)NCc1ccccc1Cl`, the IC50 is > 100 µM (inactive).
As for `C/C(=N\NC(=O)c1cc(O)c(O)c(O)c1)c1ccc(O)cc1O`, the IC50 was > 100 µM (inactive).
The value for `O=c1[nH]c2ccc(S(=O)(=O)NCc3ccc4c(c3)OCO4)cc2o1` was > 100 µM (inactive); that for `Cc1ccccc1CNC(=O)CCCNS(=O)(=O)c1ccc2[nH]c(=O)oc2c1` was > 100 µM (inactive); that for `CSc1cccc(NC(=O)CCNS(=O)(=O)c2ccc3c(c2)oc(=O)n3C)c1` was > 100 µM (inactive).
The same measure for `COc1ccccc1CNC(=O)CCNS(=O)(=O)c1ccc2[nH]c(=O)oc2c1`: > 100 µM (inactive).
In the case of `CCOc1cc(C(=O)N/N=C/c2ccccc2F)cc(OCC)c1OCC`, the IC50 was > 100 µM (inactive).
For the molecule `O=C(CCNS(=O)(=O)c1ccc2[nH]c(=O)oc2c1)NCc1ccc2c(c1)OCO2`, the IC50 is > 100 µM (inactive).
As to `COc1ccc(C(=O)N/N=C/c2c(F)cccc2Cl)cc1OC`, the IC50 was > 100 µM (inactive).
The value for `O=C(N/N=C/c1c(F)cccc1Cl)c1cc(O)c(O)c(O)c1` was > 100 µM (inactive).
`Cc1ccc(NC(=O)CCNS(=O)(=O)c2ccc3c(c2)oc(=O)n3C)cc1`: the IC50 is > 100 µM (inactive).
Regarding `Cc1cc(NC(=O)CCNS(=O)(=O)c2ccc3[nH]c(=O)oc3c2)ccc1Br`, the IC50 is > 100 µM (inactive).
Turning to `N#Cc1cccc(CNC(=O)CCNS(=O)(=O)c2ccc3[nH]c(=O)oc3c2)c1`, the IC50 is > 100 µM (inactive).
Regarding `COc1ccc(CNS(=O)(=O)c2ccc3[nH]c(=O)oc3c2)cc1`, the IC50 is > 100 µM (inactive).
`COc1cccc(NC(=O)CCNS(=O)(=O)c2ccc3c(c2)oc(=O)n3C)c1`: the IC50 was > 100 µM (inactive).
Turning to `COc1ccc(CNC(=O)CCCNS(=O)(=O)c2ccc3[nH]c(=O)oc3c2)cc1OC`, the IC50 is > 100 µM (inactive).
As for `Cc1ccc(CNC(=O)C2CCCN(S(=O)(=O)c3ccc4[nH]c(=O)oc4c3)C2)cc1` (centres undefined), the IC50 was > 100 µM (inactive).
Turning to `O=C(CCS(=O)(=O)Nc1ccc2[nH]c(=O)oc2c1)NCc1cccc(Cl)c1`, the IC50 was > 100 µM (inactive).
On to `O=C(CCNS(=O)(=O)c1ccc2[nH]c(=O)oc2c1)NCc1cccc(C(F)(F)F)c1`, for which the IC50 is > 100 µM (inactive).
Regarding `O=C(CCNS(=O)(=O)c1ccc2[nH]c(=O)oc2c1)NCc1ccc(F)cc1`, the IC50 was > 100 µM (inactive).
With `COc1cccc(CNC(=O)CCNS(=O)(=O)c2ccc3[nH]c(=O)oc3c2)c1`, the IC50 is > 100 µM (inactive).
On to `CCc1ccc(NC(=O)CCNS(=O)(=O)c2ccc3c(c2)oc(=O)n3C)cc1`, for which the IC50 is > 100 µM (inactive).
Consider `O=C(N/N=C/c1c(F)cccc1F)c1ccc(O)cc1`, for which the IC50 was > 100 µM (inactive).
The same measure for `COc1cccc(CNS(=O)(=O)c2ccc3[nH]c(=O)oc3c2)c1`: > 100 µM (inactive); for `O=c1[nH]c2ccc(S(=O)(=O)NCCc3ccc4c(c3)OCO4)cc2o1`: > 100 µM (inactive).
The same measure for `CC(C)c1ccc(NC(=O)CCNS(=O)(=O)c2ccc3c(c2)oc(=O)n3C)cc1`: > 100 µM (inactive); for `COc1ccc(NC(=O)CCNS(=O)(=O)c2ccc3c(c2)CCC3)cc1OC`: > 100 µM (inactive); for `CC(C)c1ccc(NC(=O)C2CCCN(S(=O)(=O)c3ccc4c(c3)oc(=O)n4C)C2)cc1` (centres undefined): > 100 µM (inactive).
For the molecule `Cc1ccc(C)c(NC(=O)CCNS(=O)(=O)c2ccc3c(c2)CCC3)c1`, the IC50 is > 100 µM (inactive).
With `CC(C)c1ccc(/C=N/NC(=O)c2cc(O)c(O)c(O)c2)cc1`, the IC50 is 10.9 µM.
`Cc1ccc(C)c(CNC(=O)C2CCCN(S(=O)(=O)c3ccc4[nH]c(=O)oc4c3)C2)c1` (centres undefined): the IC50 was > 100 µM (inactive).
`O=C(NN=Cc1ccccc1F)c1ccc(O)cc1`: the IC50 is > 100 µM (inactive).
`O=C(N/N=C/c1c(F)cccc1Cl)c1ccc(O)cc1`: the IC50 is > 100 µM (inactive).
As for `COc1ccc(CNC(=O)C2CCCN(S(=O)(=O)c3ccc4[nH]c(=O)oc4c3)C2)cc1` (centres undefined), the IC50 is > 100 µM (inactive).
Take `O=C(CCNS(=O)(=O)c1ccc2c(c1)CCC2)NCCc1ccc2c(c1)OCO2`: the IC50 is > 100 µM (inactive).
The value for `O=C(CCNS(=O)(=O)c1ccc2ccccc2c1)NCCc1ccc2c(c1)OCO2` was > 100 µM (inactive); that for `COc1ccc(/C=N\NC(=O)c2cc(O)c(O)c(O)c2)cc1CN1CCN(c2ccc(F)cc2)CC1` was > 100 µM (inactive); that for `O=C(N/N=C/c1ccc(F)c(Br)c1)c1cc(O)c(O)c(O)c1` was > 100 µM (inactive).
Regarding `O=C(CCCNS(=O)(=O)c1ccc2[nH]c(=O)oc2c1)NCc1ccccc1Cl`, the IC50 was > 100 µM (inactive).
In the case of `O=C(N/N=C/c1cccc(Cl)c1Cl)c1cc(O)c(O)c(O)c1`, the IC50 is 64.3 µM.
For the molecule `COc1cccc(CNC(=O)CNS(=O)(=O)c2ccc3[nH]c(=O)oc3c2)c1`, the IC50 was > 100 µM (inactive).
For `Cc1ccc(C)c(NS(=O)(=O)c2ccc3[nH]c(=O)oc3c2)c1`, the IC50 was > 100 µM (inactive).
In the case of `COc1ccc(NC(=O)CCCNS(=O)(=O)c2ccc3[nH]c(=O)oc3c2)c(OC)c1`, the IC50 is > 100 µM (inactive).
Take `N#Cc1cccc(NS(=O)(=O)c2ccc3[nH]c(=O)oc3c2)c1`: the IC50 was > 100 µM (inactive).
Regarding `COc1ccc(CNC(=O)CCNS(=O)(=O)c2ccc3ccccc3c2)c(OC)c1`, the IC50 was > 100 µM (inactive).
Regarding `O=C(CCNS(=O)(=O)c1ccc2[nH]c(=O)oc2c1)NCc1ccccc1F`, the IC50 was > 100 µM (inactive).
On to `O=C(N/N=C/c1ccccc1F)c1ccc(O)cc1`, for which the IC50 was > 100 µM (inactive).

For the origin of these results see PubChem BioAssay AID588645 (Sanford-Burnham Center for Chemical Genomics, 2011).
